In US20080260653A1, “Transdermal Delivery Systems and Transdermal Chelation Preparations” (priority 2004, published 2008):

Assay: Thermal stability and activity test of chelators (copper oxide removal test)
Assay type: physicochemical
Details: 143 degrees F. for 5 minutes
Procedure: A fresh copper surface is prepared. The surface is gently heat oxidized. Next, the chelation quality was determined. About 0.0001 grams per drop (or 0.0029 g/ml) chelator effectively removed all the oxide form 1 cm sq in two minutes at a temperature of 98-99 degrees F. Then, the solution was diluted at 10% intervals to determine the point where it would not remove the oxide. There was a step wise decrease in chelation effect across the Cu test sample plate. A standard of chelation was graphed, see FIGS. 1 and 2.
A similar test is used for thermal stability and activity. […] Also, the identical test is used to determine batch activity. A crude field test is to put the chelator on a penny and heat to 98 degrees.

Structure (SMILES)	inactive (loss of chelator activity on heating) [%]
O=S(=O)([O-])CC(S)CS.[Na+] (centres unmarked) [DMPS, 2,3-dimercaptopropanesulphonate sodium]	100
O=C(O)CN(CCN(CC(=O)O)CC(=O)O)CC(=O)O [EDTA, ethylenediamine-N,N,N′,N′-tetraacetic acid]	100
